Assay results reported in PubChem BioAssay (NCI).
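Compound exposure: 48 hours, 5 concentrations, 96-well plates. GI50 marks 50% less growth. At the TGI there is no net growth.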

Tests used:
Experiment in all cases: inhibition of tumour cell growth, NCI panel, 48 h
[1] = test system: 786-0 renal
[2] = test system: A498 renal
[3] = test system: A549 NSCLC
[4] = test system: ACHN renal
[5] = test system: BT-549 breast
[6] = test system: CAKI-1 renal
[7] = test system: CCRF-CEM leukemia
[8] = test system: COLO 205 colon
[9] = test system: DU-145 prostate
[10] = test system: EKVX NSCLC
[11] = test system: HCC-2998 colon
[12] = test system: HCT-116 colon
[13] = test system: HCT-15 colon
[14] = test system: HL-60(TB) leukemia
[15] = test system: HOP-62 NSCLC
[16] = test system: HOP-92 NSCLC
[17] = test system: HS 578T breast
[18] = test system: HT29 colon
[19] = test system: IGROV1 ovarian
[20] = test system: K-562 leukemia
[21] = test system: KM12 colon
[22] = test system: LOX IMVI melanoma
[23] = test system: M14 melanoma
[24] = test system: MALME-3M melanoma
[25] = test system: MCF7 breast
[26] = test system: MDA-MB-435
[27] = test system: MDA-MB-468 breast
[28] = test system: MOLT-4 leukemia

## CC[C@]12C=CCN3CC[C@@]4(c5ccc(OC)cc5N(C)[C@H]4[C@@](O)(C(=O)OC)[C@@H]1OC(=O)CCC[P+](C1CCCCC1)(C1CCCCC1)C1CCCCC1)[C@@H]32
[1]
  GI50: 4.45 µM
  TGI: 16.7 µM
[2]
  GI50: 12.4 µM
  TGI: 26.2 µM
[3]
  GI50: 3.46 µM
  TGI: 13.7 µM
[4]
  GI50: 15.2 µM
  TGI: 28.6 µM
[5]
  GI50: 2.44 µM
  TGI: 5.82 µM
[6]
  GI50: 16.4 µM
  TGI: 30.3 µM
[7]
  GI50: 1.69 µM
  TGI: 11.6 µM
[8]
  GI50: 0.43 µM
  TGI: 1.44 µM
[9]
  GI50: 3.75 µM
  TGI: 15.2 µM
[10]
  GI50: 3.09 µM
  TGI: 16 µM
[11]
  GI50: 1.7 µM
  TGI: 7.68 µM
[12]
  GI50: 2.85 µM
  TGI: 11.4 µM
[13]
  GI50: 15.3 µM
  TGI: 29.2 µM
[14]
  GI50: 0.322 µM
  TGI: 1.34 µM
[15]
  GI50: 3.68 µM
  TGI: 13.7 µM
[16]
  GI50: 1.01 µM
  TGI: 4.03 µM
[17]
  GI50: 2.45 µM
  TGI: 7.91 µM
[18]
  GI50: 1.88 µM
  TGI: 4.05 µM
[19]
  GI50: 1.39 µM
  TGI: 5.28 µM
[20]
  GI50: 1.32 µM
  TGI: 12.5 µM
[21]
  GI50: 1.63 µM
  TGI: 4.08 µM
[22]
  GI50: 2.88 µM
  TGI: 10.5 µM
[23]
  GI50: 1.92 µM
  TGI: 8.29 µM
[24]
  GI50: 1.46 µM
  TGI: 3.26 µM
[25]
  GI50: 1.19 µM
  TGI: 7.67 µM
[26]
  GI50: 1.83 µM
  TGI: 5.33 µM
[27]
  GI50: 0.313 µM
  TGI: 1.29 µM
[28]
  GI50: 2.16 µM
